Results taken from ChEMBL document CHEMBL3885881, “DrugMatrix”.

Organism: Rattus norvegicus
Assay: DrugMatrix - Regimen: Daily Repeat
Format: toxicity, organism-based, Sprague-Dawley
Design: regimen Daily Repeat, gender Male, age 6-8 weeks
Conditions: in vivo, po, route oral GAVAGE, vehicle .5 % CMC; for BASOPHIL / EOSINOPHIL / ERYTHROCYTE COUNT / HEMATOCRIT / HEMOGLOBIN / LEUKOCYTE COUNT / LYMPHOCYTE / MEAN CORPUSCULAR HEMOGLOBIN / MEAN CORPUSCULAR HEMOGLOBIN CONCENTRATION / MEAN CORPUSCULAR VOLUME / MONOCYTE / NEUTROPHIL / PLATELET COUNT: tissue Blood; for ALANINE AMINOTRANSFERASE / ALBUMIN / ALKALINE PHOSPHATASE / ASPARTATE AMINOTRANSFERASE / BLOOD UREA NITROGEN / CHLORIDE / CHOLESTEROL / CREATINE PHOSPHOKINASE / CREATININE / GLUCOSE / PHOSPHORUS / POTASSIUM / SODIUM / TOTAL BILIRUBIN / TOTAL PROTEIN: tissue Plasma
[1] = 0 mg/kg, 72 h, dose level Control, time 3 day
[2] = 0 mg/kg, 120 h, dose level Control, time 5 day
[3] = 570 mg/kg, 72 h, dose level High, time 3 day
[4] = 570 mg/kg, 120 h, dose level High, time 5 day

With `COc1ccc2c(c1OC)C(=O)O[C@@H]2[C@H]1c2c(cc3c(c2OC)OCO3)CCN1C` [NOSCAPINE] the BASOPHIL [1] was 0.68%, the EOSINOPHIL [1] was 0.46% and the “ERYTHROCYTE COUNT” value [1] was 7.15 x10E6/uL. For the same compound, the HEMATOCRIT [1] was 45.44%, the HEMOGLOBIN [1] was 14.1 G/DL and the “LEUKOCYTE COUNT” value [1] was 9.78 x10E3/uL. For the same compound, the LYMPHOCYTE [1] was 84.44%, the “MEAN CORPUSCULAR HEMOGLOBIN” value [1] was 19.72 pg and the “MEAN CORPUSCULAR HEMOGLOBIN CONCENTRATION” value [1] was 31 G/DL. The “MEAN CORPUSCULAR VOLUME” value [1] was 63.66 fL, the MONOCYTE [1] was 2.14% and the NEUTROPHIL [1] was 11.16%. For the same compound, the “PLATELET COUNT” value [1] was 1378.2 x10E3/uL, the “ALANINE AMINOTRANSFERASE” value [1] was 42.33 u/L and the ALBUMIN [1] was 3.8 G/DL. The “ALKALINE PHOSPHATASE” value [1] was 388.17 u/L, the “ASPARTATE AMINOTRANSFERASE” value [1] was 68 u/L and the “BLOOD UREA NITROGEN” value [1] was 16.17 mg/dL. The CHLORIDE [1] was 96.67 MEQ/L, the CHOLESTEROL [1] was 71 mg/dL and the “CREATINE PHOSPHOKINASE” value [1] was 156.17 u/L. For the same compound, the CREATININE [1] was 0.57 mg/dL, the GLUCOSE [1] was 193.67 mg/dL and the PHOSPHORUS [1] was 11.43 mg/dL. For the same compound, the POTASSIUM [1] was 7 MEQ/L, the SODIUM [1] was 140.33 MEQ/L and the “TOTAL BILIRUBIN” value [1] was 0.48 mg/dL. The “TOTAL PROTEIN” value [1] was 6.8 G/DL, the BASOPHIL [2] was 1.47% and the EOSINOPHIL [2] was 1%. For the same compound, the “ERYTHROCYTE COUNT” value [2] was 7.12 x10E6/uL, the HEMATOCRIT [2] was 45.47% and the HEMOGLOBIN [2] was 14.1 G/DL. For the same compound, the “LEUKOCYTE COUNT” value [2] was 11.38 x10E3/uL, the LYMPHOCYTE [2] was 82.57% and the “MEAN CORPUSCULAR HEMOGLOBIN” value [2] was 19.82 pg. The “MEAN CORPUSCULAR HEMOGLOBIN CONCENTRATION” value [2] was 31.02 G/DL, the “MEAN CORPUSCULAR VOLUME” value [2] was 63.88 fL and the MONOCYTE [2] was 2.2%. The NEUTROPHIL [2] was 11.97%, the “PLATELET COUNT” value [2] was 1267 x10E3/uL and the “ALANINE AMINOTRANSFERASE” value [2] was 38 u/L. The ALBUMIN [2] was 3.72 G/DL, the “ALKALINE PHOSPHATASE” value [2] was 391 u/L and the “ASPARTATE AMINOTRANSFERASE” value [2] was 65.83 u/L. For the same compound, the “BLOOD UREA NITROGEN” value [2] was 14.17 mg/dL, the CHLORIDE [2] was 107.67 MEQ/L and the CHOLESTEROL [2] was 61 mg/dL. The “CREATINE PHOSPHOKINASE” value [2] was 148.33 u/L, the CREATININE [2] was 0.57 mg/dL and the GLUCOSE [2] was 177.17 mg/dL. It also gave a PHOSPHORUS [2] of 12.07 mg/dL, a POTASSIUM [2] of 7.2 MEQ/L and an SODIUM [2] of 151.5 MEQ/L. For the same compound, the “TOTAL BILIRUBIN” value [2] was 0.58 mg/dL, the “TOTAL PROTEIN” value [2] was 6.72 G/DL and the BASOPHIL [3] was 0.35%. The EOSINOPHIL [3] was 0.35%, the “ERYTHROCYTE COUNT” value [3] was 7.71 x10E6/uL and the HEMATOCRIT [3] was 48.95%. The HEMOGLOBIN [3] was 15.2 G/DL, the “LEUKOCYTE COUNT” value [3] was 9.57 x10E3/uL and the LYMPHOCYTE [3] was 82.8%. For the same compound, the “MEAN CORPUSCULAR HEMOGLOBIN” value [3] was 19.7 pg, the “MEAN CORPUSCULAR HEMOGLOBIN CONCENTRATION” value [3] was 31.05 G/DL and the “MEAN CORPUSCULAR VOLUME” value [3] was 63.4 fL. The MONOCYTE [3] was 3.35%, the NEUTROPHIL [3] was 12% and the “PLATELET COUNT” value [3] was 1473 x10E3/uL. The “ALANINE AMINOTRANSFERASE” value [3] was 27.5 u/L, the ALBUMIN [3] was 3.9 G/DL and the “ALKALINE PHOSPHATASE” value [3] was 381.5 u/L. For the same compound, the “ASPARTATE AMINOTRANSFERASE” value [3] was 56 u/L, the “BLOOD UREA NITROGEN” value [3] was 17.5 mg/dL and the CHLORIDE [3] was 96 MEQ/L. For the same compound, the CHOLESTEROL [3] was 131 mg/dL, the “CREATINE PHOSPHOKINASE” value [3] was 176 u/L and the CREATININE [3] was 0.45 mg/dL. It also gave a GLUCOSE [3] of 166 mg/dL, a PHOSPHORUS [3] of 12.8 mg/dL and a POTASSIUM [3] of 6.5 MEQ/L. The SODIUM [3] was 140.5 MEQ/L, the “TOTAL BILIRUBIN” value [3] was 0.55 mg/dL and the “TOTAL PROTEIN” value [3] was 7.25 G/DL. For the same compound, the BASOPHIL [4] was 1.17%, the EOSINOPHIL [4] was 0.53% and the “ERYTHROCYTE COUNT” value [4] was 7.1 x10E6/uL. For the same compound, the HEMATOCRIT [4] was 42.8%, the HEMOGLOBIN [4] was 13.67 G/DL and the “LEUKOCYTE COUNT” value [4] was 9.28 x10E3/uL. For the same compound, the LYMPHOCYTE [4] was 75.47%, the “MEAN CORPUSCULAR HEMOGLOBIN” value [4] was 19.27 pg and the “MEAN CORPUSCULAR HEMOGLOBIN CONCENTRATION” value [4] was 31.97 G/DL. For the same compound, the “MEAN CORPUSCULAR VOLUME” value [4] was 60.33 fL, the MONOCYTE [4] was 2.07% and the NEUTROPHIL [4] was 19.87%. For the same compound, the “PLATELET COUNT” value [4] was 1766.33 x10E3/uL, the “ALANINE AMINOTRANSFERASE” value [4] was 36 u/L and the ALBUMIN [4] was 3.7 G/DL. The “ALKALINE PHOSPHATASE” value [4] was 318.5 u/L, the “ASPARTATE AMINOTRANSFERASE” value [4] was 57 u/L and the “BLOOD UREA NITROGEN” value [4] was 13.5 mg/dL. For the same compound, the CHLORIDE [4] was 106 MEQ/L, the CHOLESTEROL [4] was 100 mg/dL and the “CREATINE PHOSPHOKINASE” value [4] was 142 u/L. It also gave a CREATININE [4] of 0.45 mg/dL, a GLUCOSE [4] of 188 mg/dL and a PHOSPHORUS [4] of 12.45 mg/dL. The POTASSIUM [4] was 7 MEQ/L, the SODIUM [4] was 149 MEQ/L and the “TOTAL BILIRUBIN” value [4] was 0.2 mg/dL. For the same compound, the “TOTAL PROTEIN” value [4] was 6.75 G/DL.
